Publication PMC10882719 (Frontiers in Neuroscience, 2024)
Read-outs that look alike come from different tables or passages of the source.

Tests used:
Format in all cases: cell-based
168 GPCRs [1] = target: T1, 168 GPCRs (Homo sapiens, UniProt P20309)
T1 construct: host or cells: PathHunter cell lines

168 GPCRs [2] = target: T2, 168 GPCRs (Homo sapiens, UniProt P21462)
T2 construct: host or cells: PathHunter cell lines
T2 sequence (P21462 1-350): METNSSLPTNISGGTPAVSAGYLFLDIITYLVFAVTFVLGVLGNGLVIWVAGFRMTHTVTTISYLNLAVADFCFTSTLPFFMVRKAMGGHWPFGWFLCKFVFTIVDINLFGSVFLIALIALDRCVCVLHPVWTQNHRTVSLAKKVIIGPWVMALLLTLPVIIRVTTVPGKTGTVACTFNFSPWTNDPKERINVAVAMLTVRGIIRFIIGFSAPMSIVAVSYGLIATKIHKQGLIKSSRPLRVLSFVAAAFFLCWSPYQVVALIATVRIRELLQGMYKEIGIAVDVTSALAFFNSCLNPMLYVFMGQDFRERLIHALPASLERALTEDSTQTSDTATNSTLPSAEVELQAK

168 GPCRs [3] = target: T3, 168 GPCRs (Homo sapiens, UniProt P25025)
T3 construct: host or cells: PathHunter cell lines
T3 sequence (P25025 1-360): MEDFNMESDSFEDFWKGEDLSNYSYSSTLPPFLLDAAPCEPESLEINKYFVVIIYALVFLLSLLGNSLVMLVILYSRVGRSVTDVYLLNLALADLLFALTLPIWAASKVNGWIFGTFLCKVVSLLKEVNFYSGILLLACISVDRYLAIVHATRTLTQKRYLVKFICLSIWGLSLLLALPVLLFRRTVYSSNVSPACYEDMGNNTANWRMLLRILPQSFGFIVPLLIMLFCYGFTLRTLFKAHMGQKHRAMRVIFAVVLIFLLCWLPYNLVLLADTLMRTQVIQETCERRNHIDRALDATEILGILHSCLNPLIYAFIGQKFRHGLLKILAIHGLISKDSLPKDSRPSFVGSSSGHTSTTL

168 GPCRs [4] = target: T4, 168 GPCRs (Homo sapiens, UniProt P25103); details: TACR1
T4 construct: host or cells: PathHunter cell lines

168 GPCRs [5] = target: T5, 168 GPCRs (Homo sapiens, UniProt P25105); details: PTAFR
T5 construct: host or cells: PathHunter cell lines

168 GPCRs [6] = target: T6, 168 GPCRs (Homo sapiens, UniProt P35346); details: SSTR5
T6 construct: host or cells: PathHunter cell lines

168 GPCRs [7] = target: T7, 168 GPCRs (Homo sapiens, UniProt P47900); details: P2RY1
T7 construct: host or cells: PathHunter cell lines

168 GPCRs [8] = target: T8, 168 GPCRs (Homo sapiens, UniProt P51681)
T8 construct: host or cells: PathHunter cell lines

168 GPCRs [9] = target: T9, 168 GPCRs (Homo sapiens, UniProt Q16602)
T9 construct: host or cells: PathHunter cell lines

168 GPCRs [10] = target: T10, 168 GPCRs (Homo sapiens, UniProt Q92847); details: GHSR
T10 construct: host or cells: PathHunter cell lines

168 GPCRs [11] = target: T11, 168 GPCRs (Homo sapiens, UniProt Q9HBW0)
T11 construct: host or cells: PathHunter cell lines
T11 sequence (Q9HBW0 whole entry): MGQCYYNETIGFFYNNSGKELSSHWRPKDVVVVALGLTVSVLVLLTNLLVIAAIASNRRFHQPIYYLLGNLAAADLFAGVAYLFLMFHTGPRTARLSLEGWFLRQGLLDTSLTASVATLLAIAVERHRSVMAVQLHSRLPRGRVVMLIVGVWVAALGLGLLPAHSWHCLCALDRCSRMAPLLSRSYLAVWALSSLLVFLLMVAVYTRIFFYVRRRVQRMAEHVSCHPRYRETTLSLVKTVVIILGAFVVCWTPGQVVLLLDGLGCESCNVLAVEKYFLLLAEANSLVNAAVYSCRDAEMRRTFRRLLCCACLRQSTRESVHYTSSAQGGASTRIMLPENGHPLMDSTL

T9 sequence (Q16602 23-461): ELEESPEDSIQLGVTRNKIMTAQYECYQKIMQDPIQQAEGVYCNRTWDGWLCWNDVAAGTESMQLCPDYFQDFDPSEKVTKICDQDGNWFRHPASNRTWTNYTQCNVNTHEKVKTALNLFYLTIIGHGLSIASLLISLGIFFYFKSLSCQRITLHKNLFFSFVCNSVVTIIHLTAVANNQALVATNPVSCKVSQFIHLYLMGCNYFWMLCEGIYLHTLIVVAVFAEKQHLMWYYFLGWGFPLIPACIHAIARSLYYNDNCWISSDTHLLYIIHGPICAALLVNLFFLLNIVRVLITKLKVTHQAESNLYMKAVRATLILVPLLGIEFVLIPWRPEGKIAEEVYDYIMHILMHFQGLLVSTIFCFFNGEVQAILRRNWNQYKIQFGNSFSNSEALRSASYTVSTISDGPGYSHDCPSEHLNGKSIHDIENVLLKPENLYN
T8 sequence (P51681 whole entry): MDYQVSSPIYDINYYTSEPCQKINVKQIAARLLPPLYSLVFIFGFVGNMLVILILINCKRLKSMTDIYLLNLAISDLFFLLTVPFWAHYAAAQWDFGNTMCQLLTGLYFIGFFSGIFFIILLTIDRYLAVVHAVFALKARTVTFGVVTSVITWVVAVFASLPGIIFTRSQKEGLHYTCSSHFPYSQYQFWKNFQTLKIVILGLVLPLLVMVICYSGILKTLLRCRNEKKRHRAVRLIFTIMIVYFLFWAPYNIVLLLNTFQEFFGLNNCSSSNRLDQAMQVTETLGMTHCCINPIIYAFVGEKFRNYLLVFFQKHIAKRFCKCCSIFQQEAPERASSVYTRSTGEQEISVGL
T7 sequence (P47900 whole entry): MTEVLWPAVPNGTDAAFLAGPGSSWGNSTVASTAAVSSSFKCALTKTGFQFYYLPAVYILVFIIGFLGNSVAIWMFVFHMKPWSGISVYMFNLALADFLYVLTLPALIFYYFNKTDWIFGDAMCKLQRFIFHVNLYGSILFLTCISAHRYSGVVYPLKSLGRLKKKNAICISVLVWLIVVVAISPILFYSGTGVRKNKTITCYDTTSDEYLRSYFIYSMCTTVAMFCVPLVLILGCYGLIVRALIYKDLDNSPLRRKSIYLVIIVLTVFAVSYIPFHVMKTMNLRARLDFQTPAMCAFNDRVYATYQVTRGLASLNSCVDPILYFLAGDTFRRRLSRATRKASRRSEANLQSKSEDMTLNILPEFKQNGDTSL
T6 sequence (P35346 whole entry): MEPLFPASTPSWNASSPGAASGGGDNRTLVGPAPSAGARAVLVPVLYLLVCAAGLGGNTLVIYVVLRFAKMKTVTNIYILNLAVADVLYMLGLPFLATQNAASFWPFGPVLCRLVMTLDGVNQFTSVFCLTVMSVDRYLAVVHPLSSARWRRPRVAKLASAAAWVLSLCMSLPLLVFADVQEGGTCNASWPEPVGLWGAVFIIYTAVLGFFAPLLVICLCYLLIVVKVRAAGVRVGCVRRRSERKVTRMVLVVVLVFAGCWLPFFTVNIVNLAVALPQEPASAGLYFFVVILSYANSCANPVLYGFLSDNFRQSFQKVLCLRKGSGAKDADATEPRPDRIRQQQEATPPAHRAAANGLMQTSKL
T10 sequence (Q92847 whole entry): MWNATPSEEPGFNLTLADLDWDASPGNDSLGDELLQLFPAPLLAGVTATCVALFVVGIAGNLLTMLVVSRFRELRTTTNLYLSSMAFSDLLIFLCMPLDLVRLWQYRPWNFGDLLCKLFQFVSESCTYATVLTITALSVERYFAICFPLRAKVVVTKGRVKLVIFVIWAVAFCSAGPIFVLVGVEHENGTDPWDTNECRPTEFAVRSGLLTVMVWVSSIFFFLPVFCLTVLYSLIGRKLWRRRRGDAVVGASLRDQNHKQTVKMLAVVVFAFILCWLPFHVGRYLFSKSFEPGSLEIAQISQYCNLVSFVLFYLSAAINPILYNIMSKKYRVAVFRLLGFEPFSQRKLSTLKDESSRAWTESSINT
T1 sequence (P20309 whole entry): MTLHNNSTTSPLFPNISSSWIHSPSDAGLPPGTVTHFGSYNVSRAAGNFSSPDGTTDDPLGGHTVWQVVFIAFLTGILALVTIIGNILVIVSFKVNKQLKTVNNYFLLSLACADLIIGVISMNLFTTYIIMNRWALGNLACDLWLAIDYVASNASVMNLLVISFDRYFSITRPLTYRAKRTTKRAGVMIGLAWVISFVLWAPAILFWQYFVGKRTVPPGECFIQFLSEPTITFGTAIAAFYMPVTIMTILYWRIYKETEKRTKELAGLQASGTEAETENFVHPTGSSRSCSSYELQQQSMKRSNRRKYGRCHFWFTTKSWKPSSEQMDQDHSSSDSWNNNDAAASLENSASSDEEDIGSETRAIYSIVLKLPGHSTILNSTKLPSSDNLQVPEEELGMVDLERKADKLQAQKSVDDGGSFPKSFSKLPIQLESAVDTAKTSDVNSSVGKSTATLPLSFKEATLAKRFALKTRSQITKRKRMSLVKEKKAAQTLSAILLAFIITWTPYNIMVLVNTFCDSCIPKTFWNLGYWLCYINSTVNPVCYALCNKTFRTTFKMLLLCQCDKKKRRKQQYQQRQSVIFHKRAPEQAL
T4 sequence (P25103 whole entry): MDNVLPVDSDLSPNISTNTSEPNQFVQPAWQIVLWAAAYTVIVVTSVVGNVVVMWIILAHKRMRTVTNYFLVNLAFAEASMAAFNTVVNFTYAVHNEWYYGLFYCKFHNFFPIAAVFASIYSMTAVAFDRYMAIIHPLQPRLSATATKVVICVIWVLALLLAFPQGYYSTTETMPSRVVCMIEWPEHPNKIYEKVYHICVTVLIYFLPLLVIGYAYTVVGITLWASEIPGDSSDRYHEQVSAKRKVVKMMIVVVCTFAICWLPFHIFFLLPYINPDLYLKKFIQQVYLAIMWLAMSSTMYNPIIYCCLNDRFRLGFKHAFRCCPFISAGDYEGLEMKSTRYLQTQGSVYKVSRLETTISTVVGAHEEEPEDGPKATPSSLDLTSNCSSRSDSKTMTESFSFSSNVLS
T5 sequence (P25105 whole entry): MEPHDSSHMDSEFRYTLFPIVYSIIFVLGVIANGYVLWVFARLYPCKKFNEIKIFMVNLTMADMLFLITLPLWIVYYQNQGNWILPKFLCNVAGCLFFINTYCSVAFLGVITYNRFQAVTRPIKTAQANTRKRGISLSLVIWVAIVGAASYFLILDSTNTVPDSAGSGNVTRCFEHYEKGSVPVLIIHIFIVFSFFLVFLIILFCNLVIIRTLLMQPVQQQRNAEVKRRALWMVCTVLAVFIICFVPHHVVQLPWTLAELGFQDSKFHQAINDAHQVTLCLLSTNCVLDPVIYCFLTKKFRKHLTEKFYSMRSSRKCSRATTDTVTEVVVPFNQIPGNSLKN

CNC(C)C(=O)c1ccc2c(c1)OCO2 (centres unmarked) [methylone]
% Agonist Activity (168 GPCRs [1]; CHRM3, 1 uM): 6% | % Antagonist Activity (168 GPCRs [1]; CHRM3, 1 uM): -5.5% | % Agonist Activity (168 GPCRs [1]; CHRM3, 10 uM): 6% | % Antagonist Activity (168 GPCRs [1]; CHRM3, 10 uM): 14.6% | % Agonist Activity (168 GPCRs [2]; FPR1, 1 uM): 2.2% | % Antagonist Activity (168 GPCRs [2]; FPR1, 1 uM): -4.9% | % Agonist Activity (168 GPCRs [2]; FPR1, 10 uM): 0.5% | % Antagonist Activity (168 GPCRs [2]; FPR1, 10 uM): -11.4% | % Agonist Activity (168 GPCRs [3]; CXCR2, 1 uM): -0.2% | % Antagonist Activity (168 GPCRs [3]; CXCR2, 1 uM): -7.6% | % Agonist Activity (168 GPCRs [3]; CXCR2, 10 uM): -2.6% | % Antagonist Activity (168 GPCRs [3]; CXCR2, 10 uM): -1% | % Agonist Activity (168 GPCRs [4]; Conc 1 uM): -3.9% | % Antagonist Activity (168 GPCRs [4]; Conc 1 uM): 15.2% | % Agonist Activity (168 GPCRs [4]; Conc 10 uM): -4.4% | % Antagonist Activity (168 GPCRs [4]; Conc 10 uM): 8.9% | % Agonist Activity (168 GPCRs [5]; Conc 1 uM): -1.3% | % Antagonist Activity (168 GPCRs [5]; Conc 1 uM): 2% | % Agonist Activity (168 GPCRs [5]; Conc 10 uM): -2.6% | % Antagonist Activity (168 GPCRs [5]; Conc 10 uM): -6.7% | % Agonist Activity (168 GPCRs [6]; Conc 1 uM): -2.4% | % Antagonist Activity (168 GPCRs [6]; Conc 1 uM): 14.7% | % Agonist Activity (168 GPCRs [6]; Conc 10 uM): -1.3% | % Antagonist Activity (168 GPCRs [6]; Conc 10 uM): 5.7% | % Agonist Activity (168 GPCRs [7]; Conc 1 uM): 2.2% | % Antagonist Activity (168 GPCRs [7]; Conc 1 uM): 14.5% | % Agonist Activity (168 GPCRs [7]; Conc 10 uM): -4.1% | % Antagonist Activity (168 GPCRs [7]; Conc 10 uM): 14.9% | % Agonist Activity (168 GPCRs [8]; CCR5, 1 uM): -0.1% | % Antagonist Activity (168 GPCRs [8]; CCR5, 1 uM): 1.7% | % Agonist Activity (168 GPCRs [8]; CCR5, 10 uM): 0.3% | % Antagonist Activity (168 GPCRs [8]; CCR5, 10 uM): -0.5% | % Agonist Activity (168 GPCRs [9]; CALCRL-RAMP1, 1 uM): -2.6% | % Antagonist Activity (168 GPCRs [9]; CALCRL-RAMP1, 1 uM): 4.7% | % Agonist Activity (168 GPCRs [9]; CALCRL-RAMP1, 10 uM): -0.2% | % Antagonist Activity (168 GPCRs [9]; CALCRL-RAMP1, 10 uM): 7% | % Agonist Activity (168 GPCRs [9]; CALCRL-RAMP2, 1 uM): 0.1% | % Antagonist Activity (168 GPCRs [9]; CALCRL-RAMP2, 1 uM): 19.1% | % Agonist Activity (168 GPCRs [9]; CALCRL-RAMP2, 10 uM): 2.8% | % Antagonist Activity (168 GPCRs [9]; CALCRL-RAMP2, 10 uM): 7% | % Agonist Activity (168 GPCRs [9]; CALCRL-RAMP3, 1 uM): -2.2% | % Antagonist Activity (168 GPCRs [9]; CALCRL-RAMP3, 1 uM): -18.5% | % Agonist Activity (168 GPCRs [9]; CALCRL-RAMP3, 10 uM): -2.2% | % Antagonist Activity (168 GPCRs [9]; CALCRL-RAMP3, 10 uM): -7.5% | % Agonist Activity (168 GPCRs [10]; 1 uM): -6.6% | % Antagonist Activity (168 GPCRs [10]; 1 uM): 25.8% | % Agonist Activity (168 GPCRs [10]; 10 uM): -7.2% | % Antagonist Activity (168 GPCRs [10]; 10 uM): 9.1% | % Agonist Activity (168 GPCRs [11]; EDG4, 1 uM): -2.2% | % Antagonist Activity (168 GPCRs [11]; EDG4, 1 uM): -10.2% | % Agonist Activity (168 GPCRs [11]; EDG4, 10 uM): -2.1% | % Antagonist Activity (168 GPCRs [11]; EDG4, 10 uM): -21%

CNC(C)Cc1ccc2c(c1)OCO2 (centres unmarked) [MDMA, 3,4-Methylenedioxy methamphetamine, reference compound]
% Agonist Activity (168 GPCRs [1]; CHRM3, 1 uM): 5.1% | % Antagonist Activity (168 GPCRs [1]; CHRM3, 1 uM): -9.4% | % Agonist Activity (168 GPCRs [1]; CHRM3, 10 uM): 4.3% | % Antagonist Activity (168 GPCRs [1]; CHRM3, 10 uM): 1.4% | % Agonist Activity (168 GPCRs [2]; FPR1, 1 uM): 4.4% | % Antagonist Activity (168 GPCRs [2]; FPR1, 1 uM): 4.5% | % Agonist Activity (168 GPCRs [2]; FPR1, 10 uM): 3.7% | % Antagonist Activity (168 GPCRs [2]; FPR1, 10 uM): 2.5% | % Agonist Activity (168 GPCRs [3]; CXCR2, 1 uM): -0.9% | % Antagonist Activity (168 GPCRs [3]; CXCR2, 1 uM): 12.8% | % Agonist Activity (168 GPCRs [3]; CXCR2, 10 uM): 2.2% | % Antagonist Activity (168 GPCRs [3]; CXCR2, 10 uM): 14.6% | % Agonist Activity (168 GPCRs [4]; Conc 1 uM): -0.2% | % Antagonist Activity (168 GPCRs [4]; Conc 1 uM): 4.4% | % Agonist Activity (168 GPCRs [4]; Conc 10 uM): -0.1% | % Antagonist Activity (168 GPCRs [4]; Conc 10 uM): -2.1% | % Agonist Activity (168 GPCRs [5]; Conc 1 uM): 0.6% | % Antagonist Activity (168 GPCRs [5]; Conc 1 uM): 11.4% | % Agonist Activity (168 GPCRs [5]; Conc 10 uM): 0.4% | % Antagonist Activity (168 GPCRs [5]; Conc 10 uM): 12.1% | % Agonist Activity (168 GPCRs [6]; Conc 1 uM): -2.5% | % Antagonist Activity (168 GPCRs [6]; Conc 1 uM): 1.6% | % Agonist Activity (168 GPCRs [6]; Conc 10 uM): -3.2% | % Antagonist Activity (168 GPCRs [6]; Conc 10 uM): -2% | % Agonist Activity (168 GPCRs [7]; Conc 1 uM): 0.3% | % Antagonist Activity (168 GPCRs [7]; Conc 1 uM): 2.8% | % Agonist Activity (168 GPCRs [7]; Conc 10 uM): -0.8% | % Antagonist Activity (168 GPCRs [7]; Conc 10 uM): 1.2% | % Agonist Activity (168 GPCRs [8]; CCR5, 1 uM): 0.2% | % Antagonist Activity (168 GPCRs [8]; CCR5, 1 uM): 4.5% | % Agonist Activity (168 GPCRs [8]; CCR5, 10 uM): 0.1% | % Antagonist Activity (168 GPCRs [8]; CCR5, 10 uM): 9.8% | % Agonist Activity (168 GPCRs [9]; CALCRL-RAMP1, 1 uM): 0.3% | % Antagonist Activity (168 GPCRs [9]; CALCRL-RAMP1, 1 uM): 6.8% | % Agonist Activity (168 GPCRs [9]; CALCRL-RAMP1, 10 uM): -0.6% | % Antagonist Activity (168 GPCRs [9]; CALCRL-RAMP1, 10 uM): 8.1% | % Agonist Activity (168 GPCRs [9]; CALCRL-RAMP2, 1 uM): -1% | % Antagonist Activity (168 GPCRs [9]; CALCRL-RAMP2, 1 uM): 28.7% | % Agonist Activity (168 GPCRs [9]; CALCRL-RAMP2, 10 uM): 0.9% | % Antagonist Activity (168 GPCRs [9]; CALCRL-RAMP2, 10 uM): 30.8% | % Agonist Activity (168 GPCRs [9]; CALCRL-RAMP3, 1 uM): -0.9% | % Antagonist Activity (168 GPCRs [9]; CALCRL-RAMP3, 1 uM): -8.1% | % Agonist Activity (168 GPCRs [9]; CALCRL-RAMP3, 10 uM): -1.4% | % Antagonist Activity (168 GPCRs [9]; CALCRL-RAMP3, 10 uM): -13% | % Agonist Activity (168 GPCRs [10]; 1 uM): 3% | % Antagonist Activity (168 GPCRs [10]; 1 uM): -30.8% | % Agonist Activity (168 GPCRs [10]; 10 uM): 3.1% | % Antagonist Activity (168 GPCRs [10]; 10 uM): -7% | % Agonist Activity (168 GPCRs [11]; EDG4, 1 uM): 1.5% | % Antagonist Activity (168 GPCRs [11]; EDG4, 1 uM): 7.5% | % Agonist Activity (168 GPCRs [11]; EDG4, 10 uM): 2.2% | % Antagonist Activity (168 GPCRs [11]; EDG4, 10 uM): 10.2%
